According to the supplement of paper PMC9663587:

How the values were obtained:
[1] = compound: CC(=O)c1c(C)c2cnc(Nc3ccc(N4CCNCC4)cn3)nc2n(C2CCCC2)c1=O; assay: increase in dead-cell fraction, 72 h; higher = more death;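 note: breast cancer cell lines in 384-well plates, stained with Hoechst plus LIVE/DEAD far red dye and imaged, cells above an LDR intensity threshold counted dead, Hoechst-negative corpses included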
[2] = compound: CCN1CCN(Cc2ccc(Nc3ncc(F)c(-c4cc(F)c5nc(C)n(C(C)C)c5c4)n3)nc2)CC1; assay: as above
[3] = compound: T1, CCOc1cc2ncc(C#N)c(Nc3ccc(OCc4ccccn4)c(Cl)c3)c2cc1NC(=O)/C=C/CN(C)C [Neratinib/HKI272]; assay: as above
[4] = compound: CCc1cnn2c(NCc3ccc[n+]([O-])c3)cc(N3CCCC[C@H]3CCO)nc12; assay: as above
[5] = compound: T1, Neratinib/HKI272; assay: GR value, 72 h; higher = faster growth (1 = untreated, <0 = killing);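 note: breast cancer and non-malignant breast epithelial lines, nine half-log doses, viable cells counted by Hoechst and LIVE/DEAD dye imaging versus time-zero plates and DMSO controls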
[6] = compound: C=CC(=O)Nc1ccc(C(=O)Nc2[nH]nc3c2CN(C(=O)N[C@H](CN(C)C)c2ccccc2)C3(C)C)cc1 [YKL-5-124]; assay: increase in dead-cell fraction, 72 h; higher = more death;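 note: breast cancer cell lines in 384-well plates, stained with Hoechst plus LIVE/DEAD far red dye and imaged, cells above an LDR intensity threshold counted dead, Hoechst-negative corpses included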
[7] = compound: CC(=O)c1c(C)c2cnc(Nc3ccc(N4CCN(CCOCCOCCOCCNC(=O)COc5cccc6c5C(=O)N(C5CCC(=O)NC5=O)C6=O)CC4)cn3)nc2n(C2CCCC2)c1=O [BSJ-03-123]; assay: as above
[8] = compound: CN(C)C(=O)c1cc2cnc(Nc3ccc(N4CCNCC4)cn3)nc2n1C1CCCC1 [LEE011/Ribociclib]; assay: as above
[9] = compound: CN(C)C/C=C/C(=O)Nc1ccc(C(=O)N2CCC[C@@H](Nc3ncc(Cl)c(-c4c[nH]c5ccccc45)n3)C2)cc1 [THZ531]; assay: as above
[10] = compound: CN(C)C/C=C/C(=O)Nc1ccc(C(=O)Nc2cccc(Nc3ncc(Cl)c(-c4c[nH]c5ccccc45)n3)c2)cc1 [THZ1]; assay: as above
[11] = compound: T2, CN1CC[C@H](c2c(O)cc(O)c3c(=O)cc(-c4ccccc4Cl)oc23)[C@H](O)C1 [Flavopiridol]; assay: as above
[12] = compound: T2, Flavopiridol; assay: GR value, 72 h; higher = faster growth (1 = untreated, <0 = killing);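 note: breast cancer and non-malignant breast epithelial lines, nine half-log doses, viable cells counted by Hoechst and LIVE/DEAD dye imaging versus time-zero plates and DMSO controls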

## MDAMB157
[1]; 0.0003162 µM
  increase in dead-cell fraction: 0.0033
[1]; 0.001 µM
  increase in dead-cell fraction: 0.0064
[1]; 0.003162 µM
  increase in dead-cell fraction: 0.0023
[1]; 0.01 µM
  increase in dead-cell fraction: 0.0015
[1]; 0.03162 µM
  increase in dead-cell fraction: 0.0013
[1]; 0.1 µM
  increase in dead-cell fraction: 0.0006
[1]; 0.3162 µM
  increase in dead-cell fraction: -0.002
[1]; 1 µM
  increase in dead-cell fraction: -0.0042
[1]; 3.162 µM
  increase in dead-cell fraction: -0.0011
[2]; 0.001 µM
  increase in dead-cell fraction: -0.0027
[2]; 0.003162 µM
  increase in dead-cell fraction: -0.0032
[2]; 0.01 µM
  increase in dead-cell fraction: -0.0032
[2]; 0.03162 µM
  increase in dead-cell fraction: 0.0011
[2]; 0.1 µM
  increase in dead-cell fraction: 0.0051
[2]; 0.3162 µM
  increase in dead-cell fraction: 0.0141
[2]; 1 µM
  increase in dead-cell fraction: 0.0387
[2]; 3.162 µM
  increase in dead-cell fraction: 0.0737
[2]; 10 µM
  increase in dead-cell fraction: 0.48
[3]; 0.0003162 µM
  increase in dead-cell fraction: 0.0012
[3]; 0.001 µM
  increase in dead-cell fraction: 0.0066
[3]; 0.003162 µM
  increase in dead-cell fraction: 0.004
[3]; 0.01 µM
  increase in dead-cell fraction: -0.0008
[3]; 0.03162 µM
  increase in dead-cell fraction: 0.0016
[3]; 0.1 µM
  increase in dead-cell fraction: -0.0006
[3]; 0.3162 µM
  increase in dead-cell fraction: 0.0073
[3]; 1 µM
  increase in dead-cell fraction: -0.0005
[3]; 3.162 µM
  increase in dead-cell fraction: 0.032
[4]; 0.0001 µM
  increase in dead-cell fraction: 0
[4]; 0.0003162 µM
  increase in dead-cell fraction: -0.0024
[4]; 0.001 µM
  increase in dead-cell fraction: 0.0008
[4]; 0.003162 µM
  increase in dead-cell fraction: 0.0027
[4]; 0.01 µM
  increase in dead-cell fraction: 0.028
[4]; 0.03162 µM
  increase in dead-cell fraction: 0.41
[4]; 0.1 µM
  increase in dead-cell fraction: 0.781
[4]; 0.3162 µM
  increase in dead-cell fraction: 0.834
[4]; 1 µM
  increase in dead-cell fraction: 0.851
[5]; 0.0003162 µM
  GR value: 1.03 GR
[5]; 0.001 µM
  GR value: 0.981 GR
[5]; 0.003162 µM
  GR value: 1.04 GR
[5]; 0.01 µM
  GR value: 1 GR
[5]; 0.03162 µM
  GR value: 0.921 GR
[5]; 0.1 µM
  GR value: 0.842 GR
[5]; 0.3162 µM
  GR value: 0.708 GR
[5]; 1 µM
  GR value: 0.445 GR
[5]; 3.162 µM
  GR value: 0.151 GR

## PDX1206
[6]; 0.001 µM
  increase in dead-cell fraction: -0.009
[6]; 0.003162 µM
  increase in dead-cell fraction: -0.0048
[6]; 0.01 µM
  increase in dead-cell fraction: 0.0238
[6]; 0.03162 µM
  increase in dead-cell fraction: 0.0116
[6]; 0.1 µM
  increase in dead-cell fraction: 0.0307
[6]; 0.3162 µM
  increase in dead-cell fraction: 0.0443
[6]; 1 µM
  increase in dead-cell fraction: 0.0358
[6]; 3.162 µM
  increase in dead-cell fraction: 0.0858
[6]; 10 µM
  increase in dead-cell fraction: 0.484
[7]; 0.001 µM
  increase in dead-cell fraction: -0.0047
[7]; 0.003162 µM
  increase in dead-cell fraction: -0.004
[7]; 0.01 µM
  increase in dead-cell fraction: -0.0083
[7]; 0.03162 µM
  increase in dead-cell fraction: -0.0021
[7]; 0.1 µM
  increase in dead-cell fraction: -0.0156
[7]; 0.3162 µM
  increase in dead-cell fraction: -0.0027
[7]; 1 µM
  increase in dead-cell fraction: -0.0025
[7]; 3.162 µM
  increase in dead-cell fraction: -0.0175
[7]; 10 µM
  increase in dead-cell fraction: 0.217
[8]; 0.001 µM
  increase in dead-cell fraction: -0.0167
[8]; 0.003162 µM
  increase in dead-cell fraction: -0.0241
[8]; 0.01 µM
  increase in dead-cell fraction: 0.009
[8]; 0.03162 µM
  increase in dead-cell fraction: -0.0043
[8]; 0.1 µM
  increase in dead-cell fraction: -0.0009
[8]; 0.3162 µM
  increase in dead-cell fraction: 0.0111
[8]; 1 µM
  increase in dead-cell fraction: -0.0007
[8]; 3.162 µM
  increase in dead-cell fraction: 0.0201
[8]; 10 µM
  increase in dead-cell fraction: 0.0115
[9]; 0.0001 µM
  increase in dead-cell fraction: -0.0011
[9]; 0.0003162 µM
  increase in dead-cell fraction: 0.0053
[9]; 0.001 µM
  increase in dead-cell fraction: -0.0065
[9]; 0.003162 µM
  increase in dead-cell fraction: -0.0032
[9]; 0.01 µM
  increase in dead-cell fraction: -0.0015
[9]; 0.03162 µM
  increase in dead-cell fraction: -0.0072
[9]; 0.1 µM
  increase in dead-cell fraction: 0.347
[9]; 0.3162 µM
  increase in dead-cell fraction: 0.257
[9]; 1 µM
  increase in dead-cell fraction: 0.344
[10]; 0.0001 µM
  increase in dead-cell fraction: -0.0189
[10]; 0.0003162 µM
  increase in dead-cell fraction: 0.0062
[10]; 0.001 µM
  increase in dead-cell fraction: -0.0104
[10]; 0.003162 µM
  increase in dead-cell fraction: -0.008
[10]; 0.01 µM
  increase in dead-cell fraction: -0.0089
[10]; 0.03162 µM
  increase in dead-cell fraction: 0.0587
[10]; 0.1 µM
  increase in dead-cell fraction: 0.346
[10]; 0.3162 µM
  increase in dead-cell fraction: 0.424
[10]; 1 µM
  increase in dead-cell fraction: 0.513
[11]; 0.0001 µM
  increase in dead-cell fraction: 0.009
[11]; 0.0003162 µM
  increase in dead-cell fraction: 0.0115
[11]; 0.001 µM
  increase in dead-cell fraction: 0.0015
[11]; 0.003162 µM
  increase in dead-cell fraction: 0.0091
[11]; 0.01 µM
  increase in dead-cell fraction: -0.0105
[11]; 0.03162 µM
  increase in dead-cell fraction: 0.0053
[11]; 0.1 µM
  increase in dead-cell fraction: 0.0408
[11]; 0.3162 µM
  increase in dead-cell fraction: 0.405
[11]; 1 µM
  increase in dead-cell fraction: 0.587
[12]; 0.0001 µM
  GR value: 1.09 GR
[12]; 0.0003162 µM
  GR value: 0.867 GR
[12]; 0.001 µM
  GR value: 0.803 GR
[12]; 0.003162 µM
  GR value: 0.812 GR
[12]; 0.01 µM
  GR value: 1.03 GR
[12]; 0.03162 µM
  GR value: 0.485 GR
[12]; 0.1 µM
  GR value: 0.393 GR
[12]; 0.3162 µM
  GR value: -0.402 GR
[12]; 1 µM
  GR value: -0.571 GR
